The record followed here is ChEMBL document CHEMBL1143589, “Effects of 5'-phosphate derivatives of 2-hexynyl adenosine and 2-phenylethynyl adenosine on responses of human platelets mediated by P2Y receptors” (J Med Chem, 2005).

Holding throughout (assay type): functional
A short description of assay [1]: Effect of compound at 800 uM on platelet aggregation induced by 10 uM ADP.
A short description of assay [2]: Inhibitory concentration of compound on platelet aggregation.
Assay [3] is described as follows: Effect of compound at 1 uM on platelet aggregation induced by 10 uM ADP.
Assay [4] is described as follows: Effect of compound at 10 uM on platelet aggregation induced by 10 uM ADP.
Assay [5] is described as follows: Effect of compound at 100 uM on platelet aggregation induced by 10 uM ADP.
The nature of assay [6]: Inhibitory effect of ADP (10 uM) on PGE1 (2 uM)-induced increase in platelet cAMP levels at 100 uM concentration of compound. (Changes in cAMP serve as a functional read-out for many G protein-coupled receptors.)
The nature of assay [7]: Inhibitory effect of ADP (10 uM) on PGE1 (2 uM)-induced increase in platelet cAMP levels at 800 uM concentration of compound.
Assay [8] is described as follows: Inhibitory effect of ADP (10 uM) on PGE1 (2 uM)-induced increase in platelet cAMP levels at 10 uM concentration of compound.
A short description of assay [9]: Inhibitory effect of ADP (10 uM) on PGE1 (2 uM)-induced increase in platelet cAMP levels at 1 uM concentration of compound.
A short description of assay [10]: Platelet shape change and aggregation induced by the compound at 1 uM concentration.
A short description of assay [11]: Platelet shape change and aggregation induced by the compound at 10 uM concentration.
The nature of assay [12]: Platelet shape change and aggregation induced by the compound at 100 uM concentration.
Assay [13] is described as follows: Effect of compound on elevation of cAMP levels induced by 2 uM PGE1 at 1 uM.
Assay [14] in a line: Effect of compound on elevation of cAMP levels induced by 2 uM PGE1 at 10 uM.
Assay [15] is described as follows: Effect of compound on elevation of cAMP levels induced by 2 uM PGE1 at 100 uM.

Regarding `CCCCC#Cc1nc(N)c2ncn(C3O[C@H](COP(=O)(O)O)[C@@H](O)[C@H]3O)c2n1` (stereo partly specified), the Activity is 0 in assay [1], 75.2 in assay [3], 54.4 in assay [4] and 11.8 in assay [5]. Moreover, the midpoint of inhibition in assay [2], the IC50, lay at 14 µM. Moreover, the Inhibition is listed as 13.6% in assay [6], 58.2% in assay [7], 9.6% in [8] and 6.7% in assay [9].
Turning to `Nc1nc(C#Cc2ccccc2)nc2c1ncn2C1O[C@H](COP(=O)(O)OP(=O)(O)O)[C@@H](O)[C@H]1O` (stereo partly specified), the Activity in [1] is listed as 9.5; in assay [3], 81.5; in [4], 77.4; in [5] it was 43.2. Besides, it took 60 µM to reach half-maximal inhibition in assay [2] (IC50). The Inhibition in assay [6] is reported as 4.1%; in assay [7], 29.5%; in assay [8] it was 2.6%; in assay [9] it was 1%.
As for `CCCCC#Cc1nc(N)c2ncn(C3O[C@H](COP(=O)(O)OP(=O)(O)OP(=O)(O)O)[C@@H](O)[C@H]3O)c2n1` (stereo partly specified), the Light transmission is listed as 0% in assay [10], 9% in assay [11] and 39% in assay [12]. The Activity was 59 in [13]; 35 in assay [14]; 27 in assay [15]; 92 in [3]; 90 in [4]; 64 in [5].
In assay [11], `Nc1ncnc2c1ncn2[C@@H]1O[C@H](COP(=O)(O)OP(=O)(O)O)[C@@H](O)[C@H]1O` [ADENOSINE DIPHOSPHATE] displayed a Light transmission of 53%. The Activity in assay [14] was found to be 34.
As for `Nc1nc(C#Cc2ccccc2)nc2c1ncn2[C@@H]1O[C@H](COP(=O)(O)OP(=O)(O)OP(=O)(O)O)[C@@H](O)[C@H]1O`, the Activity in assay [1] is recorded as 0.2; in assay [3], 81; in [4], 81.6; in assay [5], 46.6. Moreover, inhibition in [2] was half-maximal at 85 µM (IC50). The Inhibition in assay [6] amounted to 5.7%; in assay [7], 68.9%; in assay [8] it was 1.6%; in assay [9], 1.6%.
For the compound `Nc1nc(C#Cc2ccccc2)nc2c1ncn2C1O[C@H](COP(=O)(O)O)[C@@H](O)[C@H]1O` (stereo partly specified), the Activity is reported as 0.2 in assay [1], 86 in [3], 92.8 in [4] and 58.4 in assay [5]. In addition, it took 130 µM to reach half-maximal inhibition in [2] (IC50). Besides, the Inhibition in assay [6] is 14.9%; in assay [7], 74.4%; in [8] it was 4.1%; in assay [9], 4.6%.
`CCCCC#Cc1nc(N)c2ncn(C3O[C@H](COP(=O)(O)OP(=O)(O)O)[C@@H](O)[C@H]3O)c2n1` (stereo partly specified): the Light transmission in assay [10] came to 0%; in assay [11], 17%; in assay [12], 41%. Besides, the Activity in assay [13] turned out to be 58; in assay [14] it was 50; in assay [15], 38; in [3] it was 98; in [4] it was 99; in assay [5], 100.

As a reminder, the IC50 is the concentration that inhibits the measured activity by half. As a reminder, the Inhibition is how much of the control response was suppressed. A lower Inhibition goes with a weak effect.
